Measurements reported in PubChem BioAssay (NCI).
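Method: 48-hour compound exposure of cells in 96-well plates, five concentrations, linear interpolation of endpoints. GI50 = concentration required for 50% inhibition of growth. At the TGI there is no net growth.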

Experiments:
Assay in all cases: DTP human tumour cell line panel, 48 h
[1] = tested on: COLO 205 colon
[2] = tested on: SK-OV-3 ovarian
[3] = tested on: SNB-19 CNS
[4] = tested on: UACC-62 melanoma
[5] = tested on: A549 NSCLC
[6] = tested on: OVCAR-8 ovarian
[7] = tested on: RXF 393 renal
[8] = tested on: HCT-116 colon
[9] = tested on: SK-MEL-28 melanoma
[10] = tested on: HS 578T breast

Structure (SMILES) | GI50 [1] | TGI [1] | GI50 [2] | TGI [2] | GI50 [3] | TGI [3] | GI50 [4] | TGI [4] | GI50 [5] | TGI [5] | GI50 [6] | TGI [6] | GI50 [7] | TGI [7] | GI50 [8] | TGI [8] | GI50 [9] | TGI [9] | GI50 [10] | TGI [10]
Cc1cc(Cl)ccc1NC(=O)NC(C)(C)COC(=O)Nc1cccc(Cl)c1 | 7.18 µM | 20.2 µM | 22.5 µM | 96 µM | 5.57 µM | > 100 µM | 4.73 µM | > 100 µM | 5.05 µM | 66.4 µM | 5.42 µM | 64.8 µM | 17.5 µM | 78.6 µM | 6.3 µM | > 100 µM | 22.3 µM | > 100 µM | 5.65 µM | 39 µM
CC(C)N(Cc1ccccc1)S(=O)(=O)c1n[nH]c(C(C)(C)C)n1 | – | > 100 µM | – | > 100 µM | – | > 100 µM | – | > 100 µM | – | > 100 µM | – | > 100 µM | – | > 100 µM | – | > 100 µM | – | > 100 µM | – | > 100 µM
N#C/C(=C\c1cccnc1)c1nc2ccccc2o1 | > 100 µM | > 100 µM | > 100 µM | > 100 µM | > 100 µM | > 100 µM | > 100 µM | > 100 µM | > 100 µM | > 100 µM | > 100 µM | > 100 µM | > 100 µM | > 100 µM | > 100 µM | > 100 µM | > 100 µM | > 100 µM | > 100 µM | > 100 µM
NC(=S)N/N=C\c1nccc2c(C(F)(F)C(F)(F)C(F)(F)F)cccc12 | 0.0327 µM | 1.9 µM | 0.0466 µM | 1.43 µM | 0.196 µM | 5.21 µM | 0.171 µM | 0.511 µM | 0.0978 µM | 1.1 µM | 0.0402 µM | 1.59 µM | 0.113 µM | 1.26 µM | 0.0348 µM | 1.45 µM | 0.25 µM | 3.26 µM | 0.889 µM | 22.6 µM
CCC(=O)OC1=CN2C(=NC(c3ccc(N)cc3)=CC2c2cc(OC)c(OC)c(OC)c2)S1 (stereo not given) | 3.72 µM | 10.7 µM | 3.45 µM | 13 µM | 3.59 µM | 16.4 µM | 3.03 µM | 11.8 µM | 3.22 µM | 26 µM | 3.39 µM | 22.3 µM | 2.3 µM | 7.98 µM | 3.51 µM | 13.1 µM | 5.54 µM | 18.3 µM | 3.6 µM | > 100 µM
